Source: patent publication US20250129054A1 (Terran Biosciences Inc., priority 2022, published 2025)

Assay: Serial tail vein bleed PK study in SD rats: methylone measured in plasma after IV or oral methylone or oral methylone prodrugs
Format: in vivo, Sprague Dawley rats
Details: for Tlast: analyte methylone in plasma, oral methylone THP 1-ethyl ester prodrug 10 mg/kg, male SD rats; for Plasma Concentrations of metabolite methylone: 10 mg/kg, rat
Method: A pharmacokinetic (PK) study was performed in three male Sprague-Dawley (SD) rats following intravenous (IV) and oral (PO) administration of methylone at 1 mg/kg (IV) and 10 mg/kg (PO) respectively, or test compounds (prodrugs of methylone) at 10 mg/kg (PO). Parent compound (methylone) was measured in plasma.
Samples were sent for method optimization and measurement of parent compound (methylone) via unique calibration lines and following acceptance QC's. Dose formulation concentrations were also measured, and PK parameters were determined (Cmax (ng/mL), Tmax (hr), Cl (ml/min/kg), Vdss (L/kg), t½(hr), AUC0-t (ng/mL*hr), AUC0-inf (ng/mL*hr), MIRT (hr), Bioavailability ([…]) where warranted) using WinNon Lin software. Data (including bioanalytical results and assay performance) were reported in a tabulated format.
Formulation for PO Administration: For PO dosing, the prodrug was formulated in 10% DMSO/20% PEG400/70% water to a concentration of 2 mg free metabolite material/mL. This provided a dose of 10 mg free metabolite/kg when the prodrug was administered PO in 5 mL/kg dosing volumes.
Formulation for IV administration: For IV dosing, rac-methylone was formulated as solution in saline to a concentration of 0.5 mg free metabolite material/mL. This provided a dose of 1 mg free metabolite/kg when administered IV in 2 mL/kg dosing volumes.
The pharmacokinetic properties of the synthesized methylone prodrugs after oral administration in a rat model were assessed. The concentration of methylone was measured in each rat at various sampling timepoints after IV or oral administration of rac-methylone or the synthesized methylone prodrugs to rats.
Dose formulations were made at equivalent concentrations of active compound (methylone) adjusted for molecular weight of the compounds. The synthesized methylone prodrugs or analogs were dosed at 10 mg/kg oral (PO) nominal dose. Nominal doses were used in PK parameter determinations. The parent compound (methylone) was dosed at 1 mg/kg intravenous (IV) and 10 mg/kg (PO).

[1] = 0.500 h after oral dosing of the prodrug, individual animals
[2] = 0.500 h after oral dosing of the prodrug, mean
[3] = 1.00 h after oral dosing of the prodrug, individual animals
[4] = 1.00 h after oral dosing of the prodrug, mean
[5] = 2.00 h after oral dosing of the prodrug, individual animals
[6] = 2.00 h after oral dosing of the prodrug, mean
[7] = 4.00 h after oral dosing of the prodrug, individual animals
[8] = 4.00 h after oral dosing of the prodrug, mean
[9] = 7.00 h after oral dosing of the prodrug, individual animals
[10] = 7.00 h after oral dosing of the prodrug, mean
[11] = 24.0 h after oral dosing of the prodrug, individual animals
[12] = 24.0 h after oral dosing of the prodrug, mean

Row | Compound | Tlast (individual animal) [h] | Tlast (mean) [h] | Plasma Concentrations of metabolite methylone [1] | Plasma Concentrations of metabolite methylone [2] | Plasma Concentrations of metabolite methylone [3] | Plasma Concentrations of metabolite methylone [4] | Plasma Concentrations of metabolite methylone [5] | Plasma Concentrations of metabolite methylone [6] | Plasma Concentrations of metabolite methylone [7] | Plasma Concentrations of metabolite methylone [8] | Plasma Concentrations of metabolite methylone [9] | Plasma Concentrations of metabolite methylone [10] | Plasma Concentrations of metabolite methylone [11] | Plasma Concentrations of metabolite methylone [12]
1 | 1-[[2-(1,3-Benzodioxol-5-yl)-1-methyl-2-oxo-ethyl]-methyl-carbamoyl]oxyethyl tetrahydropyran-4-carboxylate [Compound 6E] | 7.00 | 7.00 | – | – | – | – | – | – | – | – | – | – | – | –
2 | CCOC(=O)N(C)C(C)C(=O)c1ccc2c(c1)OCO2 (centres unmarked) [Compound 1A, Ethyl N-[2-(1,3-benzodioxol-5-yl)-1-methyl-2-oxo-ethyl]-N-methyl-carbamate] | – | – | BLQ (Below Lower Limit of Quantification (0.5 ng/mL)) | BLQ (Below Lower Limit of Quantification (0.5 ng/mL)) | BLQ (Below Lower Limit of Quantification (0.5 ng/mL)) | BLQ (Below Lower Limit of Quantification (0.5 ng/mL)) | BLQ (Below Lower Limit of Quantification (0.5 ng/mL)) | BLQ (Below Lower Limit of Quantification (0.5 ng/mL)) | BLQ (Below Lower Limit of Quantification (0.5 ng/mL)) | BLQ (Below Lower Limit of Quantification (0.5 ng/mL)) | BLQ (Below Lower Limit of Quantification (0.5 ng/mL)) | BLQ (Below Lower Limit of Quantification (0.5 ng/mL)) | BLQ (Below Lower Limit of Quantification (0.5 ng/mL)) | BLQ (Below Lower Limit of Quantification (0.5 ng/mL))
3 | CC(C)OC(=O)N(C)C(C)C(=O)c1ccc2c(c1)OCO2 (centres unmarked) [Compound 1B, iso-Propyl N-[2-(1,3-benzodioxol-5-yl)-1-methyl-2-oxo-ethyl]-N-methyl-carbamate] | – | – | BLQ (Below Lower Limit of Quantification (0.5 ng/mL)) | BLQ (Below Lower Limit of Quantification (0.5 ng/mL)) | BLQ (Below Lower Limit of Quantification (0.5 ng/mL)) | BLQ (Below Lower Limit of Quantification (0.5 ng/mL)) | BLQ (Below Lower Limit of Quantification (0.5 ng/mL)) | BLQ (Below Lower Limit of Quantification (0.5 ng/mL)) | BLQ (Below Lower Limit of Quantification (0.5 ng/mL)) | BLQ (Below Lower Limit of Quantification (0.5 ng/mL)) | BLQ (Below Lower Limit of Quantification (0.5 ng/mL)) | BLQ (Below Lower Limit of Quantification (0.5 ng/mL)) | BLQ (Below Lower Limit of Quantification (0.5 ng/mL)) | BLQ (Below Lower Limit of Quantification (0.5 ng/mL))
4 | CC(C)COC(=O)N(C)C(C)C(=O)c1ccc2c(c1)OCO2 (centres unmarked) [Compound 1D, iso-Butyl N-[2-(1,3-benzodioxol-5-yl)-1-methyl-2-oxo-ethyl]-N-methyl-carbamate] | – | – | BLQ (Below Lower Limit of Quantification (0.5 ng/mL)) | BLQ (Below Lower Limit of Quantification (0.5 ng/mL)) | BLQ (Below Lower Limit of Quantification (0.5 ng/mL)) | BLQ (Below Lower Limit of Quantification (0.5 ng/mL)) | BLQ (Below Lower Limit of Quantification (0.5 ng/mL)) | BLQ (Below Lower Limit of Quantification (0.5 ng/mL)) | BLQ (Below Lower Limit of Quantification (0.5 ng/mL)) | BLQ (Below Lower Limit of Quantification (0.5 ng/mL)) | BLQ (Below Lower Limit of Quantification (0.5 ng/mL)) | BLQ (Below Lower Limit of Quantification (0.5 ng/mL)) | BLQ (Below Lower Limit of Quantification (0.5 ng/mL)) | BLQ (Below Lower Limit of Quantification (0.5 ng/mL))
5 | CC(C(=O)c1ccc2c(c1)OCO2)N(C)C(=O)OC(C)(C)C (centres unmarked) [Compound 2A, tert-Butyl N-[2-(1,3-benzodioxol-5-yl)-1-methyl-2-oxo-ethyl]-N-methyl-carbamate] | – | – | BLQ (Below Lower Limit of Quantification (0.5 ng/mL)) | BLQ (Below Lower Limit of Quantification (0.5 ng/mL)) | BLQ (Below Lower Limit of Quantification (0.5 ng/mL)) | BLQ (Below Lower Limit of Quantification (0.5 ng/mL)) | BLQ (Below Lower Limit of Quantification (0.5 ng/mL)) | BLQ (Below Lower Limit of Quantification (0.5 ng/mL)) | BLQ (Below Lower Limit of Quantification (0.5 ng/mL)) | BLQ (Below Lower Limit of Quantification (0.5 ng/mL)) | BLQ (Below Lower Limit of Quantification (0.5 ng/mL)) | BLQ (Below Lower Limit of Quantification (0.5 ng/mL)) | BLQ (Below Lower Limit of Quantification (0.5 ng/mL)) | BLQ (Below Lower Limit of Quantification (0.5 ng/mL))
6 | CC(C(=O)c1ccc2c(c1)OCO2)N(C)C(=O)C(F)(F)F (centres unmarked) [Compound 2B, N-[2-(1,3-Benzodioxol-5-yl)-1-methyl-2-oxo-ethyl]-2,2,2-trifluoro-N-methyl-acetamide] | – | – | BLQ (Below Lower Limit of Quantification (0.5 ng/mL)) | BLQ (Below Lower Limit of Quantification (0.5 ng/mL)) | BLQ (Below Lower Limit of Quantification (0.5 ng/mL)) | BLQ (Below Lower Limit of Quantification (0.5 ng/mL)) | BLQ (Below Lower Limit of Quantification (0.5 ng/mL)) | BLQ (Below Lower Limit of Quantification (0.5 ng/mL)) | BLQ (Below Lower Limit of Quantification (0.5 ng/mL)) | BLQ (Below Lower Limit of Quantification (0.5 ng/mL)) | BLQ (Below Lower Limit of Quantification (0.5 ng/mL)) | BLQ (Below Lower Limit of Quantification (0.5 ng/mL)) | BLQ (Below Lower Limit of Quantification (0.5 ng/mL)) | BLQ (Below Lower Limit of Quantification (0.5 ng/mL))
7 | CC(C(=O)c1ccc2c(c1)OCO2)N(C)C(=O)CN(C)C (centres unmarked) [Compound 3B, N-[2-(1,3-Benzodioxol-5-yl)-1-methyl-2-oxo-ethyl]-2-(dimethylamino)-N-methyl-acetamide] | – | – | BLQ (Below Lower Limit of Quantification (0.5 ng/mL)) | BLQ (Below Lower Limit of Quantification (0.5 ng/mL)) | BLQ (Below Lower Limit of Quantification (0.5 ng/mL)) | BLQ (Below Lower Limit of Quantification (0.5 ng/mL)) | BLQ (Below Lower Limit of Quantification (0.5 ng/mL)) | BLQ (Below Lower Limit of Quantification (0.5 ng/mL)) | BLQ (Below Lower Limit of Quantification (0.5 ng/mL)) | BLQ (Below Lower Limit of Quantification (0.5 ng/mL)) | BLQ (Below Lower Limit of Quantification (0.5 ng/mL)) | BLQ (Below Lower Limit of Quantification (0.5 ng/mL)) | BLQ (Below Lower Limit of Quantification (0.5 ng/mL)) | BLQ (Below Lower Limit of Quantification (0.5 ng/mL))
